Our source for the melting point values is a melting point compilation (Tetko et al.; mined from patent text by program, amines drawn as free bases though some values may be those of a salt).

Each structure is given as a SMILES string. Bounds are passed on as bounds.

On to `CN1CCC(c2c[nH]c3ccc(-c4cccs4)cc23)C1` (stereo unspecified), for which the melting point fell in the range of 166 to 168 °C.
As to `O=C(Nc1cccc(S(=O)(=O)N(CCO)CCO)c1)c1cnn2c(C(F)F)cc(-c3ccc(C(F)(F)F)cc3)nc12`, the melting point worked out at 208 °C.
For the molecule `Cn1ncnc1-c1oc2cccc(CCc3ccc(F)cc3)c2c(=O)c1O`, the melting point was in the range of 192 to 193 °C.
`COC(=O)Nc1cccc(C)c1COc1cccn2c(C=O)c(C)nc12` had a melting point of 196 to 198 °C.
In turn, `CN1CCC(NC2c3ccccc3Oc3ccccc32)CC1` returned a melting point of 96.5 to 98 °C.
On to `CCOCn1cc(-c2ccnc(N)n2)c2c(OC)cc(Br)nc21`, for which the melting point was over 210 °C.
Under `C=CCONc1nc(NC=O)nc(Cl)c1NC=O` stands 170 to 181 °C; under `COc1ccc(-c2cc(=O)n(CCCOc3ccccc3)nc2-c2ccc(OC)cc2)cc1`, 110 to 111 °C; under `O=[N+]([O-])c1ccc2c(c1)OC(COc1nccnc1N1CCNCC1)CO2` (stereo unspecified), 133 to 135 °C.
`O=C1CNC2=C(CCc3cc(F)ccc32)C1` gave a melting point of 223 to 224 °C.
`CC(=O)OC1CSC(Oc2cncc(-c3cccnc3F)c2)C(OC(C)=O)C1OC(C)=O` (stereo unspecified) had a melting point of 169 to 170 °C.
Molecule `N#CCCNC(=O)c1cccc(-c2ccc3c(c2)N(CCc2ccc(Cl)cc2Cl)CC3)c1` came in with a melting point of 147 to 149 °C.
Molecule `CC(=O)c1cnc(N)o1` had a melting point of 214 to 215 °C.
Then `CCCCC1(CCCC)CS(=O)(=O)c2ccc(N(C)C)cc2C(c2ccc(OCc3cccnc3CCC(=O)O)cc2)C1O` (stereo unspecified), with 105 to 107 °C; and `O=C(O)c1ccc([N+](=O)[O-])cc1NC(=O)C(F)(F)F`, with 198 °C; and `CCn1cc(C(=O)O)c(=O)c2cc(F)c(N3CCOC(CCl)C3)c(F)c21` (stereo unspecified), with 212 to 215 °C.
`Cc1cc([N+](=O)[O-])c(O)c([N+](=O)[O-])c1C`: the melting point is 120 to 122 °C.
For `COCCNc1c(S(=O)(=O)C(F)(F)F)c(C#N)nn1-c1c(Cl)cc(C(F)(F)F)cc1Cl`, the melting point was 164 °C.
Then `Cn1ccc2cc(N3Cc4c(N)cccc4C3=O)ccc21`, with 198 to 203 °C.
`CCCc1ccc2oc(Cc3ccc(OC)cc3)c(C)c2c1O` gave a melting point of 83 to 96 °C.
On to `CC(=O)N[C@@H](CSC(=O)C(C)(C)C)C(=O)NCCSC(=O)C(C)(C)C`, for which the melting point lay in the range of 109 to 111 °C.
The molecule `O=C(O)CN1C(=O)c2cccc3c(Sc4ccccc4C(=O)O)ccc(c23)C1=O` showed a melting point of 339 to 341 °C.
Take `O=C(Cc1cccc2ccccc12)Nc1cc([C@H]2C[C@@H](NC(=O)c3cccc(C(F)(F)F)c3)C2)[nH]n1`: the melting point was 143 °C.
For the molecule `CC(C)(C)OC(=O)NC1CCN(c2ccc(C(N)=O)cc2)CC1`, the melting point was over 270 °C.
Turning to `O=C1CCN(C2(OCCOc3ccccc3)OCCO2)CC1`, the melting point was in the range of 105 to 106 °C.
The molecule `COc1ccc(C/N=C/C(/C=N/Cc2ccc(OC)cc2)[N+](=O)[O-])cc1` displayed a melting point of 132 °C.
`N#Cc1ccc(N(CCCCOc2ccc(OS(N)(=O)=O)cc2)n2cnnc2)cc1` gave a melting point of 164 to 172 °C.
The molecule `Cc1cccc(-n2ncc(-c3ccc(S(C)(=O)=O)cc3)c(-c3ccc(F)cc3)c2=O)c1` yielded a melting point of 213 to 216 °C.
In turn, `O=C(OC(c1ccccc1)c1ccccc1)C(=O)N1C(=O)[C@@H]2N=C(c3ccccc3)O[C@@H]21` came in with a melting point of 182 °C.
The molecule `COc1ccc(S(=O)(=O)Nc2cccc(F)c2/C=C/c2ccncc2)cc1` showed a melting point of 177 to 178 °C.
In turn, `Cc1cccc2c1N(CC(=O)N1CC3CCC(CC3)C1)C(=O)C(NC(=O)Nc1cccc(Cc3nnn[nH]3)c1)N=C2c1ccccc1F` (stereo unspecified) yielded a melting point of 154 to 168 °C.
`COc1cc(C)c(Cl)cc1C(=O)Cl`: the melting point was in the range of 106 to 107 °C.
In the case of `CCc1nnc(-c2ccc(F)c(F)c2Nc2ccc(I)cc2F)o1`, the melting point fell in the range of 97 to 98 °C.
Take `N#Cc1ccc(N2C(=O)N(CCO)C3(CCOCC3)C2=O)cc1C(F)(F)F`: the melting point fell in the range of 196 to 197 °C.
Molecule `O=C(NC1CCN(C2CCCCC2)C1)c1cccc2ccccc12` (stereo unspecified) came in with a melting point of 119 to 120 °C.
With `O=C(C1CCCCC1)C1CCN(S(=O)(=O)c2ccccc2)CC1`, the melting point is 141 to 143 °C.
Molecule `O=C(O)c1cc2c(s1)CCC2=O` returned a melting point of 195 to 196 °C.
Then `Oc1ccccc1-c1c(Cl)cccc1Cl`, with 100 to 103 °C; and `CN1CC(CCCl)Sc2ncccc2C1=S` (stereo unspecified), with 160 to 162 °C.
Then `CCCCCCCCCCC/C=C\c1c[nH]c(C(=O)OC)c1`, with 51 to 52 °C; and `CN1CC(c2cccc(Br)c2)=C(c2ccc(S(C)(=O)=O)cc2)C1=O`, with 138 to 139 °C.
As for `CS(=O)(=O)CC(=O)N[C@H]1CC[C@H](CCN2CCN(c3nccc4ccoc34)CC2)CC1`, the melting point was determined as 182 °C.
`CN1CCN(c2cc3nc(C(C)(C)C)sc3cc2N)CC1` yielded a melting point of 130 °C.
In turn, `COc1cccc(Nn2cnc(C)c2-c2ccccc2)c1` had a melting point of 156 to 158 °C.
`C=CCC1(C)Cc2cc(O)c(Cl)c(Cl)c2C1=O` (stereo unspecified) returned a melting point of 180 °C.
Then `O=C1CC2OC(CS(=O)Cc3ccccc3)CN12` (racemic), with 80.5 to 94.5 °C; and `N#CCc1cc(Cl)cc2c(-c3ccc(Cl)cc3)onc12`, with 187 to 190 °C; and `CC(C)(C)OC(=O)NCc1cccc(-c2nc(=O)c3ccccc3s2)n1`, with 160 to 162 °C.
As to `CCOC(=O)C=C(C)NC(=O)OCc1ccc(Cl)c(Cl)c1`, the melting point lay within 83.5 to 85 °C.
In the case of `N#Cc1ccc(C(=O)Nc2cccc(-n3nc(C(F)(F)F)cc3C(F)(F)F)c2)cc1`, the melting point was in the range of 133 to 134 °C.
With `Cc1cc2c(-c3cccc(N)c3)c(CC(=O)Nc3ccc(Cl)cc3C(F)(F)F)c(=O)oc2cc1Cl`, the melting point was 206 to 207 °C.
Molecule `O=C1CC2CSc3ccccc3C2=NN1c1ccc(Cl)cc1` (stereo unspecified) had a melting point of 146 to 147 °C.
The molecule `CCCCOc1nc2cccc(C(=O)OC)c2n1Cc1ccc(-c2ccccc2C#N)cc1` registered a melting point of 74 to 75 °C.
Under `CCSc1cnc(Oc2ccc(Cl)c(Cl)c2)c(C#N)c1` stands 114 to 115 °C; under `O=CN1CCC(=C2c3ccc(Cl)cc3CCc3cccnc32)CC1`, 147 to 149 °C; under `COc1cc2cc(C(=O)N3CC(CCl)c4c3cc(NC(=O)C(C)(C)c3ccccc3[N+](=O)[O-])c3ccccc43)[nH]c2c(OC)c1OC` (stereo unspecified), 139 to 143 °C.
Under `CC(C)n1c(=O)sc2cc(N3C[C@H](C(N)=O)OC3=O)ccc21` stands 183 to 184 °C; under `COC(=O)CC(CSC(C)=O)C(=O)O` (stereo unspecified), 120 to 121 °C.
Molecule `Fc1ccc(-c2nc(=S)n(Cc3ccccc3)[nH]2)c(Cl)c1` showed a melting point of 135 to 136 °C.
In the case of `Cc1ccc(-n2c(-c3cccc4ccccc34)ccc2-c2cccc3ccccc23)cc1`, the melting point was 105 to 106 °C.
Molecule `COc1cccc(C23CCCC=C2C(=O)N(CCc2ccccc2)C(=O)C3)c1` (stereo unspecified) yielded a melting point of 134 to 135 °C.
Regarding `CCCCCCC(C)(C)c1ccc([C@@H]2CC(=O)C[C@H](C)C2)c(O)c1` (relative stereo), the melting point fell in the range of 95 to 98 °C.
Under `COc1c(C)cc(-c2c3ccccc3c(C)c3sc4ccccc4c23)cc1C` stands 154 to 156 °C.
On to `Cn1c(C(=O)NCCCNC2CCCCC2)ccc1-c1nc(-c2cccc(C(F)(F)F)c2)cs1`, for which the melting point is 120 to 123 °C.
The molecule `O=C1NCC(c2ccco2)SCC1N1C(=O)c2ccccc2C1=O` (stereo unspecified) returned a melting point of 235 °C.
As for `COc1cc(Nc2c(C#N)cnc3cc(C#Cc4ccccn4)sc23)c(Cl)cc1Cl`, the melting point was 237 to 239 °C.
Molecule `CC(Cl)c1nc2c(C(F)(F)F)cccc2c(=O)o1` (stereo unspecified) had a melting point of 112 °C.
Molecule `CC(=O)Nc1ccc(Cl)c2c1C(=O)CCN2C(C)=O` came in with a melting point of 175 to 177 °C.
In turn, `CCCOCCOc1ccc(-c2ccc3c(c2)C=C(C(=O)Nc2ccc(CN(C)C4CCOCC4)cc2)CCS3(=O)=O)cc1` displayed a melting point of 195 to 197 °C.
`O=C(c1ccncc1)c1cccc(NC(=O)c2ccn3c2CSC3c2cccnc2)c1` (stereo unspecified) displayed a melting point of 186 °C.
`O=C1Cc2ccccc2Sc2cc(C(F)(F)F)c(Cl)cc21` yielded a melting point of 123 to 124 °C.
The molecule `CCCOCCOC(=O)C1=C(C)NC(C)=C(S(=O)(=O)N(C)CCOC)C1c1cccc([N+](=O)[O-])c1` (stereo unspecified) had a melting point of 67 to 70 °C.
As for `CCOC(=O)Nc1ccc(CCBr)c(Cl)c1`, the melting point was 112 to 114 °C.
The molecule `CCCCN(CCCC)S(=O)(=O)c1cc(C(=O)CCl)ccc1Cl` returned a melting point of 71 °C.
`O=C1CCCN1CCn1c(=O)[nH]c2ncc(-c3ccc(-c4nc[nH]n4)cc3)nc21` came in with a melting point of 300 to 301 °C.
In turn, `COc1ccc(Nc2ncc3ccc(=O)n(C4CCCC4)c3n2)cn1` returned a melting point of 181 to 182 °C.
`CC(C)(C)OC(=O)Nc1cc(OC(C)(C)C)c(-c2ccc(F)cc2)cc1N` returned a melting point of 139 °C.
`O=C1C(=Cc2ccccc2)c2ccccc2N1C1=NCCS1`: the melting point was in the range of 120 to 125 °C.
Regarding `CC(C)N(C(C)C)S(=O)(=O)NC(=O)c1nsc2ccc(-n3c(=O)cc(C(F)(F)F)n(C)c3=O)cc12`, the melting point came out at 214 °C.
On to `O=c1c2c[nH]c3c(c-2nn1-c1ccc(Cl)cc1)CC(c1ccccc1)CC3` (stereo unspecified), for which the melting point is 333 to 335 °C.
With `CCOC(=O)c1ccc(-c2ccc(C#N)cc2)s1`, the melting point is 133 to 134 °C.
Molecule `O=C(O)c1nc(SC2CCCCC2)ccc1SC1CCCCC1` yielded a melting point of 100 to 101 °C.
In the case of `CCOC(=O)CCC(=O)c1cccc(C(=O)c2ccc(Cl)cc2)c1N`, the melting point was in the range of 112 to 115 °C.
Under `Cc1cc2c(cc1Br)cc1n2[C@H](C)CN(C(=O)OC(C)(C)C)C1` stands 113 to 114 °C; under `COc1cc(C(=O)OCC2(N(C)C)CCSc3ccccc32)cc(OC)c1OC` (stereo unspecified), 146 to 148 °C; under `O=C(NC(=O)c1c(Cl)cccc1Cl)Nc1ccc(-c2ccc(Cl)cc2)nc1`, 225 to 229 °C.

The melting point is the temperature of the solid-liquid transition.
